Laboratory results: the supplement of paper PMC10627819

Key:
S. aureus DSM 20231 [1] = experiment: Bliss interaction score (quartile over a dose matrix) (fitness difference); higher = more antagonism (negative = synergy)
Method in brief: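 OD595 was read at entry into stationary phase and expressed relative to the robust mean of the no-drug wells on the same plate, capped at 1. The resulting ratio is the fitness value. The Bliss score, observed fitness minus product-based expected fitness with single-drug fitness inferred from combinations, is summarised by quartiles over technical, biological and donor/recipient replicates.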

S. aureus DSM 20231 [2] = experiment: fitness (endpoint OD595 vs no drug) (fraction); higher = more growth
Method in brief: (§1)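 Bacterial growth was followed in 384-well plates seeded at OD595 0.01, with 30 µl per well, or 55 µl for S. pneumoniae, in TSB, LB Lennox or CY at 37 °C. OD595 was read every 30 min for 14 h, and each reading had the first reading subtracted as background. Fitness is the background-corrected optical density at entry into stationary phase divided by the robust mean of the no-drug control wells. This ratio is capped at 1.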

B. subtilis 168 = experiment: as above
Method in brief: as §1

S. aureus Newman = experiment: as above
Method in brief: as §1

S. pneumoniae D39V = experiment: as above
Method in brief: as §1
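Wherever Bliss interaction score (quartile over a dose matrix) is given: first quartile when negative (synergy) and third quartile when positive (antagonism).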

CC[C@H]1OC(=O)[C@H](C)[C@@H](O[C@H]2C[C@@](C)(OC)[C@@H](O)[C@H](C)O2)[C@H](C)[C@@H](O[C@@H]2O[C@H](C)C[C@H](N(C)C)[C@H]2O)[C@](C)(O)C[C@@H](C)CN(C)[C@H](C)[C@@H](O)[C@]1(C)O [Azithromycin] + CN1CCN(C2=Nc3ccccc3Oc3ccc(Cl)cc32)CC1 [Loxapine]
Details	Bliss interaction score
S. aureus DSM 20231 [1]	-0.147

CC[C@H]1OC(=O)[C@H](C)[C@@H](O[C@H]2C[C@@](C)(OC)[C@@H](O)[C@H](C)O2)[C@H](C)[C@@H](O[C@@H]2O[C@H](C)C[C@H](N(C)C)[C@H]2O)[C@](C)(O)C[C@@H](C)CN(C)[C@H](C)[C@@H](O)[C@]1(C)O [Azithromycin] + CN(C)[C@@H]1C(O)=C(C(N)=O)C(=O)[C@@]2(O)C(O)=C3C(=O)c4c(O)ccc(Cl)c4[C@@](C)(O)[C@H]3C[C@@H]12 [Chlortetracycline]
one replicate
Details	fitness
B. subtilis 168, first compound 2 µg/mL, partner 0.0475 µg/mL	0.0292
B. subtilis 168, first compound 2 µg/mL, partner 0.095 µg/mL	0.0192
B. subtilis 168, first compound 2 µg/mL, partner 0.19 µg/mL	0.025
S. aureus DSM 20231 [2], first compound 0.125 µg/mL, partner 0.006 µg/mL	0.629
S. aureus DSM 20231 [2], first compound 0.25 µg/mL, partner 0.006 µg/mL	0.46
S. aureus DSM 20231 [2], first compound 0.5 µg/mL, partner 0.006 µg/mL	0.0187

fitness
Details	first compound 0.125 µg/mL	first compound 0.25 µg/mL	first compound 0.5 µg/mL
B. subtilis 168, partner 0.0475 µg/mL	–	0.824	–
S. aureus DSM 20231 [2], partner 0.012 µg/mL	–	–	0.0274
S. aureus DSM 20231 [2], partner 0.024 µg/mL	0.112	0.0335	0.0241
S. aureus DSM 20231 [2], partner 0.048 µg/mL	0.0779	0.0451	0.0364

CC[C@H]1OC(=O)[C@H](C)[C@@H](O[C@H]2C[C@@](C)(OC)[C@@H](O)[C@H](C)O2)[C@H](C)[C@@H](O[C@@H]2O[C@H](C)C[C@H](N(C)C)[C@H]2O)[C@](C)(O)C[C@@H](C)CN(C)[C@H](C)[C@@H](O)[C@]1(C)O [Azithromycin] + CO[C@@]12[C@H](COC(N)=O)C3=C(C(=O)C(C)=C(N)C3=O)N1C[C@@H]1N[C@@H]12 [Mitomycin C]
fitness
Details	first compound 0.125 µg/mL	first compound 0.25 µg/mL	first compound 0.5 µg/mL
S. aureus DSM 20231 [2], partner 0.0156 µg/mL	0.674	0.701	0.366
S. aureus DSM 20231 [2], partner 0.0312 µg/mL	0.661	0.664	0.314
S. aureus DSM 20231 [2], partner 0.0625 µg/mL	0.547	0.491	0.171
S. aureus Newman, partner 0.0156 µg/mL	0.719	0.726	0.561
S. aureus Newman, partner 0.0312 µg/mL	0.671	0.638	0.53
S. aureus Newman, partner 0.0625 µg/mL	0.559	0.551	0.365

CC[C@H]1OC(=O)[C@H](C)[C@@H](O[C@H]2C[C@@](C)(OC)[C@@H](O)[C@H](C)O2)[C@H](C)[C@@H](O[C@@H]2O[C@H](C)C[C@H](N(C)C)[C@H]2O)[C@](C)(O)C[C@@H](C)CN(C)[C@H](C)[C@@H](O)[C@]1(C)O [Azithromycin] + Cc1c(Cl)cccc1Nc1ccccc1C(=O)O [Tolfenamic]
Details	Bliss interaction score
S. aureus DSM 20231 [1]	-0.292

CC[C@H]1OC(=O)[C@H](C)[C@@H](O[C@H]2C[C@@](C)(OC)[C@@H](O)[C@H](C)O2)[C@H](C)[C@@H](O[C@@H]2O[C@H](C)C[C@H](N(C)C)[C@H]2O)[C@](C)(O)C[C@@H](C)CN(C)[C@H](C)[C@@H](O)[C@]1(C)O [Azithromycin] + N[C@@H]1CONC1=O [Cycloserine D]
fitness
Details	first compound 0.125 µg/mL	first compound 0.25 µg/mL	first compound 0.5 µg/mL
B. subtilis 168, partner 0.125 µg/mL	–	0.946	0.884
B. subtilis 168, partner 0.25 µg/mL	–	0.918	0.854
B. subtilis 168, partner 0.5 µg/mL	–	0.892	0.826
S. aureus DSM 20231 [2], partner 0.375 µg/mL	0.935	0.881	–
S. aureus DSM 20231 [2], partner 0.75 µg/mL	0.887	0.869	–
S. aureus DSM 20231 [2], partner 1.5 µg/mL	0.948	0.881	–
S. aureus Newman, partner 0.375 µg/mL	0.887	0.868	0.674
S. aureus Newman, partner 0.75 µg/mL	0.906	0.908	–
S. aureus Newman, partner 1.5 µg/mL	0.898	0.905	0.665

B. subtilis 168, first compound 2 µg/mL, one replicate
Details	fitness
partner 0.125 µg/mL	0.348
partner 0.25 µg/mL	0.0742
partner 0.5 µg/mL	0.066

CC[C@H]1OC(=O)[C@H](C)[C@@H](O[C@H]2C[C@@](C)(OC)[C@@H](O)[C@H](C)O2)[C@H](C)[C@@H](O[C@@H]2O[C@H](C)C[C@H](N(C)C)[C@H]2O)[C@](C)(O)C[C@@H](C)CN(C)[C@H](C)[C@@H](O)[C@]1(C)O [Azithromycin] + O=C(O)c1cc(-c2ccc(F)cc2F)ccc1O [Diflunisal]
Details	Bliss interaction score
S. aureus DSM 20231 [1]	-0.146

CN(C)CCCN1c2ccccc2Sc2ccc(Cl)cc21 [Chlorpromazine] + CC(=O)NC[C@H]1CN(c2ccc(N3CCOCC3)c(F)c2)C(=O)O1 [Linezolid]
Details	Bliss interaction score
S. aureus DSM 20231 [1]	-0.236

CN(C)CCCN1c2ccccc2Sc2ccc(Cl)cc21 [Chlorpromazine] + CCC[C@@H]1C[C@@H](C(=O)N[C@@H]([C@H]2O[C@H](SC)[C@H](O)[C@@H](O)[C@H]2O)[C@@H](C)O)N(C)C1 [Lincomycin]
Details	Bliss interaction score
S. aureus DSM 20231 [1]	-0.233

CN(C)CCCN1c2ccccc2Sc2ccc(Cl)cc21 [Chlorpromazine] + CN(C)C(=O)C(CCN1CCC(O)(c2ccc(Cl)cc2)CC1)(c1ccccc1)c1ccccc1 [Loperamide]
Details	Bliss interaction score
S. aureus DSM 20231 [1]	-0.311

CN(C)CCCN1c2ccccc2Sc2ccc(Cl)cc21 [Chlorpromazine] + CN[C@H](CC(C)C)C(=O)N[C@H]1C(=O)N[C@@H](CC(N)=O)C(=O)N[C@H]2C(=O)N[C@H]3C(=O)N[C@H](C(=O)N[C@H](C(=O)O)c4cc(O)cc(O)c4-c4cc3ccc4O)[C@H](O[C@H]3C[C@](C)(N)[C@@H](O)[C@H](C)O3)c3ccc(c(Cl)c3)Oc3cc2cc(c3O[C@@H]2O[C@H](CO)[C@@H](O)[C@H](O)[C@H]2O[C@H]2C[C@](C)(NCc3ccc(-c4ccc(Cl)cc4)cc3)[C@@H](O)[C@H](C)O2)Oc2ccc(cc2Cl)[C@H]1O [Oritavancin]
Details	Bliss interaction score
S. aureus DSM 20231 [1]	-0.202

CN(C)CCCN1c2ccccc2Sc2ccc(Cl)cc21 [Chlorpromazine] + C[C@H]1c2cccc(O)c2C(=O)C2=C(O)[C@]3(O)C(=O)C(C(N)=O)=C(O)[C@@H](N(C)C)[C@@H]3[C@@H](O)[C@@H]21 [Doxycycline]
Details	Bliss interaction score
S. aureus DSM 20231 [1]	-0.263

O=C(O)[C@H]1/C(=C/CO)O[C@@H]2CC(=O)N21 [Clavulanic acid] + C[n+]1ccc(-c2cc[n+](C)cc2)cc1 [Paraquat]
fitness, S. aureus Newman, one replicate
Details	first compound 0.03125 µg/mL	first compound 0.0625 µg/mL	first compound 0.125 µg/mL
partner 1.25 µg/mL	0.952	0.99	0.843
partner 2.5 µg/mL	0.98	0.983	0.943
partner 5 µg/mL	0.99	≥ 1	0.89

fitness
Details	first compound 0.5 µg/mL	first compound 1 µg/mL	first compound 1.5 µg/mL	first compound 2 µg/mL	first compound 3 µg/mL	first compound 6 µg/mL
B. subtilis 168, partner 1.25 µg/mL	–	–	0.93	–	0.87	0.773
B. subtilis 168, partner 2.5 µg/mL	–	–	0.96	–	0.812	0.728
B. subtilis 168, partner 5 µg/mL	–	–	0.835	–	0.77	0.672
S. pneumoniae D39V, partner 1.5 µg/mL	0.99	0.973	–	0.875	–	–
S. pneumoniae D39V, partner 3 µg/mL	≥ 1	0.962	–	0.896	–	–
S. pneumoniae D39V, partner 6 µg/mL	0.991	0.941	–	0.863	–	–
